Measured values taken from PubChem BioAssay AID248 (DTP/NCI, 2004).
Where “and” joins values, the source holds several entries; their conditions need not be identical. Equal values may be shown once. Inconclusive results and toxic doses are left out. Rule as the data show it: active = T/C of 150% or more; inactive = T/C below 125%.

System: L1210 leukemia ip in BDF1 mice, survival T/C
Assay: NCI In Vivo Anticancer Drug Screen. Data for tumor model L1210 Leukemia (intraperitoneal) in B6D2F1 (BDF1) mice
Conditions: endpoint: mean survival time, higher = longer survival
Summary of the method: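 Tumor was transplanted into mice, which were then dosed with test compound or vehicle alone. Survival was recorded for each group, and the treated figure was expressed relative to the control figure.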

[1] = dose: 100.0 mg/kg/injection, schedule: Q01DX009 (ip), vehicle: saline with Tween-80
[2] = dose: 100.0 mg/kg/injection, schedule: Q04DX003 (ip), vehicle: saline with Tween-80
[3] = dose: 200.0 mg/kg/injection, schedule: Q01DX009 (ip), vehicle: saline with Tween-80
[4] = dose: 200.0 mg/kg/injection, schedule: Q04DX003 (ip), vehicle: saline with Tween-80
[5] = dose: 400.0 mg/kg/injection, schedule: Q01DX009 (ip), vehicle: saline with Tween-80
[6] = dose: 400.0 mg/kg/injection, schedule: Q04DX003 (ip), vehicle: saline with Tween-80
[7] = dose: 100.0 mg/kg/injection, schedule: Q01DX001 (ip), vehicle: saline
[8] = dose: 200.0 mg/kg/injection, schedule: Q01DX001 (ip), vehicle: saline
[9] = dose: 400.0 mg/kg/injection, schedule: Q01DX001 (ip), vehicle: saline
[10] = dose: 100.0 mg/kg/injection, schedule: Q01DX009 (ip), vehicle: Klucel (hydroxypropylcellulose) (HPC)
[11] = dose: 100.0 mg/kg/injection, schedule: Q04DX003 (ip), vehicle: Klucel (hydroxypropylcellulose) (HPC)
[12] = dose: 200.0 mg/kg/injection, schedule: Q01DX009 (ip), vehicle: Klucel (hydroxypropylcellulose) (HPC)
[13] = dose: 200.0 mg/kg/injection, schedule: Q04DX003 (ip), vehicle: Klucel (hydroxypropylcellulose) (HPC)
[14] = dose: 400.0 mg/kg/injection, schedule: Q04DX003 (ip), vehicle: Klucel (hydroxypropylcellulose) (HPC)
[15] = dose: 100.0 mg/kg/injection, schedule: Q04DX003 (ip), vehicle: saline
[16] = dose: 200.0 mg/kg/injection, schedule: Q04DX003 (ip), vehicle: saline
[17] = dose: 100.0 mg/kg/injection, schedule: Q04DX002 (ip), vehicle: saline with Tween-80

Measured: T/C

CCC(=O)c1ccc(OC(=O)Nc2ccc(C)c(NC(=O)Oc3ccc(C(=O)CC)cc3)c2)cc1
inactive: dose: 100.0 mg/kg/injection, schedule: Q01DX009 (ip), vehicle: other 107 % of control | dose: 200.0 mg/kg/injection, schedule: Q01DX009 (ip), vehicle: other 100 % of control

O=c1cccccc1O.O=c1cccccc1O.[Cu]
inactive: dose: 1.56 mg/kg/injection, schedule: Q01DX009 (ip), vehicle: Klucel (hydroxypropylcellulose) (HPC) 97 % of control | dose: 3.12 mg/kg/injection, schedule: Q01DX009 (ip), vehicle: Klucel (hydroxypropylcellulose) (HPC) 94 % of control | dose: 6.0 mg/kg/injection, schedule: Q04DX003 (ip), vehicle: saline 94 % of control | dose: 6.25 mg/kg/injection, schedule: Q01DX009 (ip), vehicle: Klucel (hydroxypropylcellulose) (HPC) 94 % of control | dose: 12.0 mg/kg/injection, schedule: Q04DX003 (ip), vehicle: saline 95 % of control | dose: 25.0 mg/kg/injection, schedule: Q04DX003 (ip), vehicle: saline 102 % of control

O=C1C(Br)C2CCC1C2C(=O)O (stereo not drawn)
inactive: [1] 103 % of control | [2] 87 % of control | [3] 89 % of control and 96 % of control | [4] 92 % of control | [5] 100 % of control and 94 % of control | [6] 101 % of control

O=C(O)O.[Co].[NH-]CC[N-]CC[N-]CC[NH-]
inactive: dose: 50.0 mg/kg/injection, schedule: Q01DX001 (ip), vehicle: saline 97 % of control | [7] 108 % of control | [8] 92 % of control | [9] 100 % of control

NC(=S)N/N=C/c1c[nH]c2ccccc12
inactive: [10] 95 % of control | [11] 87 % of control | [12] 97 % of control | [13] 96 % of control | [14] 94 % of control

CC(=O)OC1CCC2(C)C(=CC(=O)C3=C2CCC2(C)C3CCC2C(C)/C=C/C(C)C(C)C)C1 (stereo not drawn)
inactive: dose: 100.0 mg/kg/injection, schedule: Q01DX009 (ip), vehicle: saline 92 % of control | [15] 88 % of control | dose: 200.0 mg/kg/injection, schedule: Q01DX009 (ip), vehicle: saline 95 % of control | [16] 97 % of control | dose: 400.0 mg/kg/injection, schedule: Q01DX009 (ip), vehicle: saline 92 % of control | dose: 400.0 mg/kg/injection, schedule: Q04DX003 (ip), vehicle: saline 91 % of control

O=C1CC2(CCNCC2)C(=O)N1N1CCCCCC1
inactive: [7] 110 % of control | [8] 112 % of control | [9] 100 % of control

CCCCCCCCC(O)CCCCC (stereo not drawn)
inactive: [10] 100 % of control | [11] 106 % of control | [12] 98 % of control | [13] 103 % of control | dose: 400.0 mg/kg/injection, schedule: Q01DX009 (ip), vehicle: Klucel (hydroxypropylcellulose) (HPC) 94 % of control | [14] 109 % of control

CCCN([Si](C)(C)C)[Si](C)(C)C
inactive: dose: 50.0 mg/kg/injection, schedule: Q01DX009 (ip), vehicle: saline with Tween-80 100 % of control | [1] 94 % of control | [2] 99 % of control | [3] 100 % of control | [4] 106 % of control

O=C(c1ccccc1)c1ccccc1O
inactive: dose: 50.0 mg/kg/injection, schedule: Q01DX001 (ip), vehicle: other 90 % of control | dose: 100.0 mg/kg/injection, schedule: Q01DX001 (ip), vehicle: other 93 % of control | dose: 200.0 mg/kg/injection, schedule: Q01DX001 (ip), vehicle: other 101 % of control | dose: 400.0 mg/kg/injection, schedule: Q01DX001 (ip), vehicle: other 95 % of control

CCOC(=O)C(Cc1c(C)c(OC)c(CC(C(=O)OCC)C(=O)OCC)c(C)c1OC)C(=O)OCC
inactive: [1] 101 % of control | [2] 93 % of control | [3] 97 % of control | [4] 88 % of control | [5] 92 % of control | [6] 90 % of control

Cc1c(C)c2c(C(=O)O)c3ccccc3nc2c2ccccc12
inactive: dose: 50.0 mg/kg/injection, schedule: Q01DX001 (ip), vehicle: alcohol 96 % of control | dose: 100.0 mg/kg/injection, schedule: Q01DX001 (ip), vehicle: alcohol 102 % of control | dose: 200.0 mg/kg/injection, schedule: Q01DX001 (ip), vehicle: alcohol 92 % of control | dose: 400.0 mg/kg/injection, schedule: Q01DX001 (ip), vehicle: alcohol 105 % of control

CSc1ncnc2c1ncn2NC(=O)C1CC(=O)N(C)C1 (stereo not drawn)
inactive: [7] 107 % of control | [8] 103 % of control | [9] 100 % of control

O=C(/C=C/c1ccncc1)c1cccc2ccccc12
inactive: [2] 89 % of control | [4] 97 % of control

Br/C(=N\Nc1nn[nH]n1)c1ccccc1
inactive: [1] 93 % of control | [3] 98 % of control | [5] 95 % of control

Cc1nc2[nH]c(=S)[nH]c(=O)c2nc1C
inactive: dose: 16.0 mg/kg/injection, schedule: Q01DX Z (ip), vehicle: methylcellulose (MC) 95 % of control | dose: 31.0 mg/kg/injection, schedule: Q01DX Z (ip), vehicle: methylcellulose (MC) 119 % of control | dose: 62.0 mg/kg/injection, schedule: Q01DX Z (ip), vehicle: methylcellulose (MC) 89 % of control | dose: 125.0 mg/kg/injection, schedule: Q01DX Z (ip), vehicle: methylcellulose (MC) 95 % of control and 101 % of control | dose: 250.0 mg/kg/injection, schedule: Q01DX Z (ip), vehicle: methylcellulose (MC) 112 % of control | dose: 500.0 mg/kg/injection, schedule: Q01DX Z (ip), vehicle: methylcellulose (MC) 89 % of control

C[n+]1ccnc2ccccc21
inactive: dose: 10.0 mg/kg/injection, schedule: Q01DX009 (ip), vehicle: saline with Tween-80 105 % of control | dose: 20.0 mg/kg/injection, schedule: Q01DX009 (ip), vehicle: saline with Tween-80 105 % of control | dose: 40.0 mg/kg/injection, schedule: Q01DX009 (ip), vehicle: saline with Tween-80 104 % of control

CCOP(=O)(OCC)C1=C(P(=O)(OCC)OCC)C(F)(F)C(F)(F)C1(F)F
inactive: dose: 9.5 mg/kg/injection, schedule: Q01DX001 (ip), vehicle: other 100 % of control | dose: 19.0 mg/kg/injection, schedule: Q01DX001 (ip), vehicle: other 100 % of control | dose: 38.0 mg/kg/injection, schedule: Q01DX001 (ip), vehicle: other 97 % of control

Oc1ccc(-c2nc3ccccc3s2)cc1
inactive: dose: 100.0 mg/kg/injection, schedule: Q01DX001 (ip), vehicle: Klucel (hydroxypropylcellulose) (HPC) 105 % of control | dose: 200.0 mg/kg/injection, schedule: Q01DX001 (ip), vehicle: Klucel (hydroxypropylcellulose) (HPC) 113 % of control | dose: 400.0 mg/kg/injection, schedule: Q01DX001 (ip), vehicle: Klucel (hydroxypropylcellulose) (HPC) 111 % of control

O=c1[nH]c(C(F)(F)F)nc2c1nc1n2CCC1
inactive: [1] 103 % of control | [2] 91 % of control | [3] 102 % of control | [4] 96 % of control | [5] 97 % of control | [6] 86 % of control

CCCCN1CSC(=S)N(CCCC)C1
inactive: [17] 100 % of control | dose: 200.0 mg/kg/injection, schedule: Q04DX002 (ip), vehicle: saline with Tween-80 93 % of control | dose: 400.0 mg/kg/injection, schedule: Q04DX002 (ip), vehicle: saline with Tween-80 105 % of control

Cc1ccc(S(=O)(=O)N2CC(O)C=Cc3ccccc32)cc1 (stereo not drawn)
inactive: dose: 100.0 mg/kg/injection, schedule: Q01DX001 (ip), vehicle: carboxymethylcellulose (CMC) 107 % of control | dose: 200.0 mg/kg/injection, schedule: Q01DX001 (ip), vehicle: carboxymethylcellulose (CMC) 105 % of control | dose: 400.0 mg/kg/injection, schedule: Q01DX001 (ip), vehicle: carboxymethylcellulose (CMC) 110 % of control

CCCCC(C=O)(CCN1CCCC1)c1cccc2ccccc12 (stereo not drawn)
inactive: dose: 25.0 mg/kg/injection, schedule: Q04DX002 (ip), vehicle: saline with Tween-80 88 % of control | dose: 50.0 mg/kg/injection, schedule: Q04DX002 (ip), vehicle: saline with Tween-80 100 % of control | [17] 103 % of control

CC1=C2C(=C(CBr)OS1(=O)=O)C(=O)c1ccccc12
inactive: [1] 92 % of control | [2] 96 % of control | [3] 92 % of control | [4] 103 % of control | [5] 95 % of control | [6] 94 % of control

Nc1cc(Cl)ccc1N1CCCC1
inactive: [15] 94 % of control | [16] 90 % of control
